The target in data set [1] is Serine/threonine-protein kinase mTOR (Homo sapiens, UniProt P42345). The data set is described as follows: Inhibition of mTOR in HEK293 cells by DELFIA assay. It counts as cell-based.
Data set [2] has as its target Phosphatidylinositol 4,5-bisphosphate 3-kinase catalytic subunit alpha isoform (Homo sapiens, UniProt P42336). As to the kind of experiment: Inhibition of PI3Kalpha by fluorescence polarization assay. For orientation: In fluorescence polarisation assays a small probe gives low polarisation when free and higher when bound to something large.
The nature of data set [3]: Selectivity ratio, IC50 for PI3Kalpha to IC50 for human mTOR.
A further data set has as its system LNCaP. As to the kind of experiment: Cytotoxicity against human LNCAP cells after 1 to 2 hrs by MTS assay. It counts as functional, cell-based. In general terms: Formazan colour is commonly taken as a measure of viable cells.
The nature of data set [4]: Half life in nude mouse microsomes. The data set is classed as ADME, Microsome.

Sequence of Phosphatidylinositol 4,5-bisphosphate 3-kinase catalytic subunit alpha isoform (P42336 whole entry, canonical isoform): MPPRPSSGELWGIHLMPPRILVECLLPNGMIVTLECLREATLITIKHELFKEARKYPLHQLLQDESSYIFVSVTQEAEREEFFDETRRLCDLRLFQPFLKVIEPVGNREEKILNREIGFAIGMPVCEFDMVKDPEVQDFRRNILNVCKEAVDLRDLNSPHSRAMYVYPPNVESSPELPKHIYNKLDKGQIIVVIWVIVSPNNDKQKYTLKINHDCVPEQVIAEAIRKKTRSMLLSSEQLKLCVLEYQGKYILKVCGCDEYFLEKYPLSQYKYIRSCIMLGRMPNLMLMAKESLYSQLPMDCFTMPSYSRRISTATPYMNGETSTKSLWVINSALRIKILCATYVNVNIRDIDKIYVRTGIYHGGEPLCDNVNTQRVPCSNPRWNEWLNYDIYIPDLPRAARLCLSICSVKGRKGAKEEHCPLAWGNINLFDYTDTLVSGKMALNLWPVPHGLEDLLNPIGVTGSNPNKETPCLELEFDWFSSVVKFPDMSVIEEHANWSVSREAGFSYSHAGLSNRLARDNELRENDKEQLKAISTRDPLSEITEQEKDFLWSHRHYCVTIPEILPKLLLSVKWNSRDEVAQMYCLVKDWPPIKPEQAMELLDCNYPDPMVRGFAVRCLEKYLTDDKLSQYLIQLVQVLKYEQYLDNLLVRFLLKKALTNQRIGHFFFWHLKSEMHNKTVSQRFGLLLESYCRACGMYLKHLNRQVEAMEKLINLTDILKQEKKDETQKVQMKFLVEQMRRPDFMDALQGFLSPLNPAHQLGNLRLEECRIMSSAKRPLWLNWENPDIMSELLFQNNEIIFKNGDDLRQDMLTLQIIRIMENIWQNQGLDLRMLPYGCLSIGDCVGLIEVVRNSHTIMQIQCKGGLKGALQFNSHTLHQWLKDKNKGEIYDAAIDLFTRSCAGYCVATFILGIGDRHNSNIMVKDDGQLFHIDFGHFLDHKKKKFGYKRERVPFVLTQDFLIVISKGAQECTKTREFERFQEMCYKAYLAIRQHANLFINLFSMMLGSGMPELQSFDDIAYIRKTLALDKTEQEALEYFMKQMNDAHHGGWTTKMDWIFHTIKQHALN

Consider `CNC(=O)Nc1ccc(-c2nc(C3=CCOCC3)c3cnn(CC(F)(F)F)c3n2)cc1`, for which the IC50 (commonly the point on the concentration scale where inhibition reaches its midpoint) in data set [1] worked out at 2 nM; in data set [2], 200 nM; in the data set with LNCaP, 260 nM. The Ratio IC50 in data set [3] came to 100. Besides, the half-life (in general, the time in which the quantity being followed falls by half) in data set [4] turned out to be 13 min.

Consider `O=C(NCCF)Nc1ccc(-c2nc(C3=CCOCC3)c3cnn(CC(F)(F)F)c3n2)cc1`, for which the IC50 was 1 nM in data set [1] and 72 nM in the data set on LNCaP. Also, the Ratio IC50 in data set [3] was 2300. In data set [4], this compound returned a half-life above 30 min.

Consider `O=C(Nc1ccc(-c2nc(N3CCOCC3)c3cnn(CC(F)(F)F)c3n2)cc1)Nc1cccnc1`, for which the results for the concentration for half-maximal inhibition (IC50) (in data set [1]; in the data set with LNCaP) were 0.2 nM and below 27 nM, respectively. Further, the Ratio IC50 in data set [3] was 50. The half-life in data set [4] was above 30 min.

For `CCNC(=O)Nc1ccc(-c2nc(C3=CCOCC3)c3sccc3n2)cc1`, the results for the IC50 (in data set [1]; in data set [2]; in the data set on LNCaP) were 3.3 nM, 1050 nM and 470 nM, respectively. Moreover, the Ratio IC50 in data set [3] was 319. In data set [4], this compound showed a half-life of 3 min.

For the compound `O=C(NCCF)Nc1ccc(-c2nc(C3=CCOCC3)c3sccc3n2)cc1`, the IC50 in data set [1] stood at 2.5 nM; in data set [2], 1370 nM; in the data set with LNCaP, 1300 nM. Besides, the Ratio IC50 in data set [3] came out at 560. The half-life in data set [4] is 6 min.

With `Oc1cccc(-c2nc(C3=CCOCC3)c3cnn(-c4ccccc4)c3n2)c1`, the IC50 in data set [1] worked out at 18 nM; in data set [2], 59 nM. The Ratio IC50 in data set [3] was 3.3.

Consider `O=C(Nc1ccccc1)Nc1ccc(-c2nc(C3=CCOCC3)c3sccc3n2)cc1`, for which the IC50 in data set [1] stood at 7.2 nM; in data set [2] it was 28 nM; with LNCaP it was 800 nM. For the same compound, the Ratio IC50 in data set [3] turned out to be 4. The same compound showed a half-life in data set [4] of 21 min.

For the compound `O=C(Nc1ccc(-c2nc(C3=CCOCC3)c3cnn(CC(F)(F)F)c3n2)cc1)Nc1cccnc1`, the results for the IC50 (in data set [1]; with LNCaP) were 1 nM and 380 nM, respectively. The Ratio IC50 in data set [3] is 66. Moreover, in data set [4], the half-life came out at 25 min.

In the case of `O=C(Nc1ccncc1)Nc1ccc(-c2nc(C3=CCOCC3)c3sccc3n2)cc1`, the IC50 in data set [1] was 1.8 nM; in data set [2], 27 nM; with LNCaP, 200 nM. In data set [3], the Ratio IC50 was found to be 15. Besides, the half-life in data set [4] was above 30 min.

Turning to `O=C(NCCF)Nc1ccc(-c2nc(N3CCOCC3)c3cnn(CC(F)(F)F)c3n2)cc1`, the half-inhibitory concentration (IC50) in data set [1] (hek293) was determined as 0.6 nM; in the data set with LNCaP, 60 nM. In addition, the Ratio IC50 in data set [3] was 525. This compound gave a half-life in data set [4] of 22 min.

With `CNC(=O)Nc1ccc(-c2nc(N3CCOCC3)c3cnn(CC(F)(F)F)c3n2)cc1`, the figures for the IC50 (in data set [1] (hek293); with LNCaP) were 1 nM and 230 nM, respectively. In data set [3], the Ratio IC50 was 194. In data set [4], this compound returned a half-life of 26 min.

With `Oc1cccc(-c2nc(C3CCOCC3)c3cnn(-c4ccccc4)c3n2)c1`, the IC50 was 500 nM in data set [1] and 1010 nM in data set [2]. Besides, the Ratio IC50 in data set [3] is 2.

As to `O=C(Nc1ccc(-c2nc(C3=CCOCC3)c3sccc3n2)cc1)Nc1cccnc1`, the IC50 is 1.1 nM in data set [1], 35 nM in data set [2] and 210 nM in the data set on LNCaP. Besides, in data set [3], the Ratio IC50 was determined as 32. In addition, the half-life in data set [4] was above 30 min.

Values taken from ChEMBL document CHEMBL1153200, “Discovery of 3,6-dihydro-2H-pyran as a morpholine replacement in 6-aryl-1H-pyrazolo[3,4-d]pyrimidines and 2-arylthieno[3,2-d]pyrimidines: ATP-competitive inhibitors of the mammalian target of rapamycin (mTOR)” (Bioorg Med Chem Lett, 2010).
